Measured values taken from paper PMC11790914, “Chemogenomics for steroid hormone receptors (NR3)” (Communications Chemistry, 2025).
Where “and” joins values, the source holds several entries; their conditions need not be identical. Equal entries are not always repeated. Where two headings read alike, the source gives them in different places.

Key:
FGFR3 = target: T1, FGFR3 (Homo sapiens, UniProt P22607); test: Liability panel screening by DSF: FGFR3; type: binding; conditions: read-out: Mean ΔTM FGFR3
T1 construct: made in house
How it was run: (§1)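 ∆Tm in K was taken from Boltzmann-fitted unfolding inflection points, run in duplicate with a temperature ramp of 3 °C per minute up to 85 °C. Each recombinant protein (2 µM) was in HEPES 10 mM pH 7.5 and NaCl 500 mM, with SYPRO Orange dye at 1:1000.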

GSK3B = target: T2, GSK3B (Homo sapiens, UniProt P49841); test: Liability panel screening by DSF: GSK3B; type: binding; conditions: read-out: Mean ΔTM GSK3B
T2 construct: made in house

MAPK1 = target: T3, MAPK1 (Homo sapiens, UniProt P28482); test: Liability panel screening by DSF: MAPK1; type: binding; conditions: DSF, 20 µM, n=2; read-out: Mean ΔTM MAPK1
T3 construct: made in house
How it was run: as §1

ABL1 = target: T4, ABL1 (Homo sapiens, UniProt P00519); test: Liability panel screening by DSF: ABL1; type: binding; conditions: read-out: Mean ΔTM ABL1
T4 construct: made in house
How it was run: as §1

[1] = tested on: ATF6 activity in Hela ATF6 reporter cells; test: Endoplasmic reticulum stress assay (ATF6 Renilla luciferase reporter, tunicamycin); type: cell-based; conditions: for activity at 1 µM: Homo sapiens, HeLa, single replicates n=1 to n=5, read-out: ER stress [rel. ATF6 activity]
How it was run: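 ER stress was induced by 100 ng/mL tunicamycin added 4 h after compound (0.1% DMSO) to HeLa ATF6 reporter cells. After 18 h more, Renilla luciferase signal was read and expressed relative to DMSO control, n=5 biological replicates.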

CDK2 = target: T5, CDK2 (Homo sapiens, UniProt P24941); test: Liability panel screening by DSF: CDK2; type: binding; conditions: read-out: Mean ΔTM CDK2
T5 construct: made in house
How it was run: as §1

HEK293T cells [2] = test: Cytotoxicity: metabolic activity (WST-8 / CCK-8 assay); conditions: 1 µM; HEK293T, 24 h; WST-8; normalized to 0.1% DMSO; single replicates
Description: Cells were incubated with the test compounds at the indicated concentrations solubilized with 0.1% DMSO for 24 h. Growth-rate was determined based on the change in confluence over 24 h normalized to the change in confluence of cells treated with the 0.1% DMSO control (n = 10). Metabolic activity was determined with a water-soluble tetrazolium-8 (WST-8) assay (n = 8) after 24 h treatment. Apoptotic cells were detected with a fluorogenic DNA dye coupled to the caspase-3/7 recognition sequence (DEVD) after 24 h treatment and the apoptotic cell count was normalized to 0.1% DMSO treated cells (n = 6).
HEK293T cells (German Collection of Microorganisms and Cell Culture GmbH, DSMZ; #ACC305) were cultured in DMEM high glucose, supplemented with 10% fetal calf serum (FCS), sodium pyruvate (1 mM), penicillin (100 µ/mL) and streptomycin (100 µg/mL) at 37 °C and 5% (v/v) CO2, and seeded in pre-coated (10 µg/mL collagen G solution (Merck KgaA; #L7213) for 30 min at 37 °C) 96-well plates (2 × 10^5 cells per well). After 24 h, the cells were treated with the respective NR3 CG compound candidate at the recommended concentration, bexarotene (100 µM) or doxorubicin (30 µM) as positive controls in DMEM high glucose supplemented with 0.1% FCS, penicillin (100 µ/mL), streptomycin (100 µg/mL) and 0.1% DMSO, or 0.1% DMSO alone as an untreated control. Each sample was prepared in at least four biologically independent replicates. […] Thereafter, the medium was aspirated and the cells were incubated for 3 h with 90 µL DMEM high glucose supplemented with 0.2% FCS, penicillin (100 µ/mL) and streptomycin (100 µg/mL) and additionally containing 10 µL Cell Counting Kit 8 solution (CCK-8; MedChemExpress, Monmouth Junction, New York, USA; #HY-K0301), and absorbance was measured at 1 h, 2 h and 3 h of incubation at 450 nm on a Tecan Spark Cyto to assess metabolic activity of the cells. Before drug administration, after the first medium exchange, 24 h after drug administration, and after fluorescence imaging cell confluence was assessed using the Tecan Spark Cyto, to account for changes in cell confluence due to drug administration and cell handling. Compound effects on cell confluence, apoptosis, metabolic activity and necrosis were normalized to the vehicle control of each biological replicate individually.

BRD4 = target: T6, BRD4 (Homo sapiens, UniProt O60885); test: Liability panel screening by DSF: BRD4; type: binding; conditions: read-out: Mean ΔTM BRD4
T6 construct: This panel comprised ten highly ligandable kinases and bromodomains; made in house
How it was run: as §1

HEK293T cells [3] = test: Cytotoxicity: apoptosis induction (caspase-3/7 DEVD fluorogenic DNA dye); conditions: 1 µM; HEK293T, 24 h; apoptotic cell count normalized to 0.1% DMSO; single replicates
TRIM24 = target: T7, TRIM24 (Homo sapiens, UniProt O15164); test: Liability panel screening by DSF: TRIM24; type: binding; conditions: read-out: Mean ΔTM TRIM24
T7 construct: This panel comprised ten highly ligandable kinases and bromodomains; made in house
T7 sequence (O15164 899-1004 limits assumed): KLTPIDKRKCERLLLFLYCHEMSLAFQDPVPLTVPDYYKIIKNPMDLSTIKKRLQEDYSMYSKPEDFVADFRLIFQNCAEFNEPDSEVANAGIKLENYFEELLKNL
How it was run: as §1

BRPF1 = target: T8, BRPF1 (Homo sapiens, UniProt P55201); test: Liability panel screening by DSF: BRPF1; type: binding; conditions: read-out: Mean ΔTM BRPF1
T8 construct: This panel comprised ten highly ligandable kinases and bromodomains; made in house
T8 sequence (P55201 628-732 limits assumed): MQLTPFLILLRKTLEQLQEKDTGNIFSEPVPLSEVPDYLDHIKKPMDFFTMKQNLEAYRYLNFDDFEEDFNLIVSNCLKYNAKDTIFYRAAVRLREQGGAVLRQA
How it was run: as §1

NR3C4 (AR) = conditions: read-out: Potency [nM] IC50, NR3C4 (AR); cited from earlier work
AURKA = target: T9, AURKA (Homo sapiens, UniProt O14965); test: Liability panel screening by DSF: AURKA; type: binding; conditions: read-out: Mean ΔTM AURKA
T9 construct: made in house
T9 sequence (O14965 1-403): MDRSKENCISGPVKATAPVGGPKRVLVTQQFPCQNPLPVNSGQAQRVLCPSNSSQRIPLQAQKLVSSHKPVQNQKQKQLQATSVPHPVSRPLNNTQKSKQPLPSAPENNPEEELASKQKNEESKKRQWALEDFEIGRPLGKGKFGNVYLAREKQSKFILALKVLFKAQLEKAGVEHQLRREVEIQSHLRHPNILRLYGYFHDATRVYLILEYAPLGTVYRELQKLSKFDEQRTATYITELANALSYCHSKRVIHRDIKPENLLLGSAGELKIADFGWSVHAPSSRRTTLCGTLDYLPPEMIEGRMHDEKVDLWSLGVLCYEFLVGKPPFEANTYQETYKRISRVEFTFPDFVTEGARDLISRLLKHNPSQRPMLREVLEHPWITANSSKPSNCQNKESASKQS
How it was run: as §1

Gal4-VP16 = type: cell-based; conditions: 1 µM; vs. DMSO ctrl; single replicates n=1-3
HEK293T cells [4] = test: Cytotoxicity: growth-rate (change in confluence over 24 h); conditions: 1 µM, normalized to 0.1% DMSO control, single replicates (n=1...)
CSNK1D = target: T10, CSNK1D (Homo sapiens, UniProt P48730); test: Liability panel screening by DSF: CSNK1D; type: binding; conditions: read-out: Mean ΔTM CSNK1D
T10 construct: made in house
How it was run: as §1

HEK293T cells [5] = test: Cytotoxicity: necrosis induction (red fluorescent dye for permeable plasma membranes); type: cell-based; conditions: 1 µM, 24 h, necrotic cell count normalized to 0.1% DMSO, single replicates;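 also: compounds applied in DMEM high glucose with 0.1% FCS and 0.1% DMSO, necrotic HEK293T cells counted by red staining of cells whose plasma membranes had become permeable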
[6] = tested on: NF-κB activity in HEK293 NF-κB reporter cells; test: NF-kB activity assay (GFP reporter, ionomycin/PMA); type: cell-based; conditions: for Mean NFκB response: n=3; for NF-κB activity (inflammatory response to ionomycin/PMA): HEK293 NF-κB reporter cells, compounds at recommended concentrations, imaged over 24 h, n = 3
How it was run: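 Reporter readout: GFP-expressing cells normalized to confluence, imaged every 90 min across 24 h after ionomycin (100 ng/mL)/PMA (10 ng/mL) stimulation of HEK293 cells pre-treated 4 h with compound (0.1% DMSO); triplicate independent experiments.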

NR3A1 (ERα) = conditions: of estradiol; cited from earlier work

T10 sequence (P48730 whole entry, species assumed): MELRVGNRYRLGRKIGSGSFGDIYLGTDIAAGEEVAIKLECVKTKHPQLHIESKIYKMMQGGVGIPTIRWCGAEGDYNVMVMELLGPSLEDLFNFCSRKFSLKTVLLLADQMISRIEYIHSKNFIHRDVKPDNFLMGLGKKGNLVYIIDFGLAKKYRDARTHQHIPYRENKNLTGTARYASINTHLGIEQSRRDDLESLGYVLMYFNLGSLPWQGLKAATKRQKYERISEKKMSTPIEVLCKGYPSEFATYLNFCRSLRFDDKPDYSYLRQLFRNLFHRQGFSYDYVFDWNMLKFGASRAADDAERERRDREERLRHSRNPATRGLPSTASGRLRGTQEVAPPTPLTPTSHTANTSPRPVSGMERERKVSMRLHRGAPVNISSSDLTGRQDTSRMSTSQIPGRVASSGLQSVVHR
T4 sequence (P00519 whole entry, species assumed): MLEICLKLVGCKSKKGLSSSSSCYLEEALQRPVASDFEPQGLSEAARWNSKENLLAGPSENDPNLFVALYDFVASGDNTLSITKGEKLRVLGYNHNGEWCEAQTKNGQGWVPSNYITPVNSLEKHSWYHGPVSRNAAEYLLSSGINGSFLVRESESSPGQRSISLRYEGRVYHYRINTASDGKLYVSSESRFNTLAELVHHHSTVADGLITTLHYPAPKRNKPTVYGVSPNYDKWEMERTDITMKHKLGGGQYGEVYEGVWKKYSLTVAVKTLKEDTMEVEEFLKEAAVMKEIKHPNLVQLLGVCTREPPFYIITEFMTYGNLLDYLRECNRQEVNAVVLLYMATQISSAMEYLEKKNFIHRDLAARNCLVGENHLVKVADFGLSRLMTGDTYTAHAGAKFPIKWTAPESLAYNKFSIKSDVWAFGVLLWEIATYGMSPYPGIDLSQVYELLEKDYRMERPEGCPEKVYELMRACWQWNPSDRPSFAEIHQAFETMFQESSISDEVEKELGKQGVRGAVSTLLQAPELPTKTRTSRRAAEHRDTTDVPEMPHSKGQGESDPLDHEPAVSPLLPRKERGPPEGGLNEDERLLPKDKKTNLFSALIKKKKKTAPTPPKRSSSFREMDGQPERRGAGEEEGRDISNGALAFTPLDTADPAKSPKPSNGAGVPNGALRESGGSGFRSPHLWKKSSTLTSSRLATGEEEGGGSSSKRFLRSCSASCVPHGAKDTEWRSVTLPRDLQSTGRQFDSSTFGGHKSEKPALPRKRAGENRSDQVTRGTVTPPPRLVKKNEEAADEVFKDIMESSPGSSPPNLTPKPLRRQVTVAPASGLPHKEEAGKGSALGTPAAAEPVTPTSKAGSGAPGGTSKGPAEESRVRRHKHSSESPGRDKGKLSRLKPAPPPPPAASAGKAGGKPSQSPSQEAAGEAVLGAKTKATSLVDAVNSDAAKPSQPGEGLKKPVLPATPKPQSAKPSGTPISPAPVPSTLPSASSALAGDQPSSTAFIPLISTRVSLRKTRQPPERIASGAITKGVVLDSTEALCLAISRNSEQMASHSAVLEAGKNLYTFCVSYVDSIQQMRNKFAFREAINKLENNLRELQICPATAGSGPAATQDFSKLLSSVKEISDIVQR
T1 sequence (P22607 23-806, species assumed): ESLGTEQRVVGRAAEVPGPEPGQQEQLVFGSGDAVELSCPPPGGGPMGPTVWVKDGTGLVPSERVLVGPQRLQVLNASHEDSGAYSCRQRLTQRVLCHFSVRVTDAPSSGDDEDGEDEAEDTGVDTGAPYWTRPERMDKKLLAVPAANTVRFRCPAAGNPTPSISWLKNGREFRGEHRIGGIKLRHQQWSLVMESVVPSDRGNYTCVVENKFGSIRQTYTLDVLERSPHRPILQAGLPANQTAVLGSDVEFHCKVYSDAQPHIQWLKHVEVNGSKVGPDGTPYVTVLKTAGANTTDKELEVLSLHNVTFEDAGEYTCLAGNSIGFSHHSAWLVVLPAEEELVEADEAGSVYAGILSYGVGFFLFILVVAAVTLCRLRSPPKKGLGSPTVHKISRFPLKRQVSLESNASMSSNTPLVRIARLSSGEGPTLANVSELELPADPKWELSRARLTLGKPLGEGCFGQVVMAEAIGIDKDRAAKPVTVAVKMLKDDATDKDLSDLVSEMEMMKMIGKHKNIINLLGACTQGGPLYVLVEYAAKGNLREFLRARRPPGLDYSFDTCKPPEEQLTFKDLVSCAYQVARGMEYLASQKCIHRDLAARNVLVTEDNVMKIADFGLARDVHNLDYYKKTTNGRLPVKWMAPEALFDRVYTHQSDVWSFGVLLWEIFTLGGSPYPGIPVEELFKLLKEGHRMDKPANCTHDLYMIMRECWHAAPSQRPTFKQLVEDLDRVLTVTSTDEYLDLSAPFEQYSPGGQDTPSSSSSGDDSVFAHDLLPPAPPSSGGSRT
T2 sequence (P49841 whole entry, species assumed): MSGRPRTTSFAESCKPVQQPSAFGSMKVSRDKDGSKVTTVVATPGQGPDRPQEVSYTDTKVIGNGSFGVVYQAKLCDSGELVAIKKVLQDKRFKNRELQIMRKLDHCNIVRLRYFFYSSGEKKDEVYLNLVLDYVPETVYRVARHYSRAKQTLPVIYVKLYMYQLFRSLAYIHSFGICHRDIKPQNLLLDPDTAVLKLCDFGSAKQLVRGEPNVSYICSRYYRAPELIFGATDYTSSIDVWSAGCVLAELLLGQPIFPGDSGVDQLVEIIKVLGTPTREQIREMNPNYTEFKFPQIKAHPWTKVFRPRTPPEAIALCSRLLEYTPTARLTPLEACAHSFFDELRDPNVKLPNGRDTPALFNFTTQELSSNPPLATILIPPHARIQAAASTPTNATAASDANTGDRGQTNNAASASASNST
T3 sequence (P28482 whole entry, species assumed): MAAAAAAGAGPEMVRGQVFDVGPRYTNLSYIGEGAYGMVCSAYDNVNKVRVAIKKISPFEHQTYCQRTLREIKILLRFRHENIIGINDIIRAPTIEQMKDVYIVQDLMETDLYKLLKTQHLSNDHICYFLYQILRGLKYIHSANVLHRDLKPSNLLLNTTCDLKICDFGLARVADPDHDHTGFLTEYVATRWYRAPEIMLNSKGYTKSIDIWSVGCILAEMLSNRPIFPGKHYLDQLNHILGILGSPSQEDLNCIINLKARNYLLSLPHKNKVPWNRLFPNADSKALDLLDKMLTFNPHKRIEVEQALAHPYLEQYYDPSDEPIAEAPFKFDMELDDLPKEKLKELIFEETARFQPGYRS

SMILES | activity at 1 µM [1] | Metabolic activity [MA] (HEK293T cells [2]) | Apoptosis induction [AI] (HEK293T cells [3]) | Growth rate [GR] (HEK293T cells [4]) | Necrosis induction [NI] (HEK293T cells [5]) | Mean NFκB response ([6]; 1 µM, 1,5 h) | Mean NFκB response ([6]; 1 µM, 4,5 h) | Mean NFκB response ([6]; 1 µM, 7,5 h) | Mean NFκB response ([6]; 1 µM, 10,5 h) | Mean NFκB response ([6]; 1 µM, 13,5 h) | Mean NFκB response ([6]; 1 µM, 16,6 h) | Mean NFκB response ([6]; 1 µM, 19,5 h) | Mean NFκB response ([6]; 1 µM, 22,5 h) | Mean NFκB response ([6]; 1 µM, 3 h) | Mean NFκB response ([6]; 1 µM, 6 h) | Mean NFκB response ([6]; 1 µM, 9 h) | Mean NFκB response ([6]; 1 µM, 12 h) | Mean NFκB response ([6]; 1 µM, 15 h) | Mean NFκB response ([6]; 1 µM, 18 h) | Mean NFκB response ([6]; 1 µM, 21 h) | other results
N#Cc1ccc([C@H]2CCCC[C@H]2O)cc1C(F)(F)F [PF-998425] | 87% | 1.03 and 0.98 (3×) and 1.06 and 0.99 and 1.07 and 1.00 | 1.04 and 1.14 and 1.23 and 0.96 and 0.64 and 1.74 | 0.92 and 1.38 and 1.07 and 1.15 and 0.96 and 0.86 and 0.80 and 0.57 and 1.49 and 3.80 | 0.87 and 1.08 and 0.88 and 1.00 | 2870.31 GFP+-cells/confluence ∙ 1000 | 3725.32 GFP+-cells/confluence ∙ 1000 | 8899.00 GFP+-cells/confluence ∙ 1000 | 17651.00 GFP+-cells/confluence ∙ 1000 | 24472.33 GFP+-cells/confluence ∙ 1000 | 29696.67 GFP+-cells/confluence ∙ 1000 | 33323.33 GFP+-cells/confluence ∙ 1000 | 35466.67 GFP+-cells/confluence ∙ 1000 | 3247.46 GFP+-cells/confluence ∙ 1000 | 5028.67 GFP+-cells/confluence ∙ 1000 | 13977.00 GFP+-cells/confluence ∙ 1000 | 20998.00 GFP+-cells/confluence ∙ 1000 | 27073.33 GFP+-cells/confluence ∙ 1000 | 31376.67 GFP+-cells/confluence ∙ 1000 | 34843.33 GFP+-cells/confluence ∙ 1000 | ΔTm at 20 µM (FGFR3; DSF, 20 µM, n=2): -0.09 °C; ΔTm at 20 µM (GSK3B; DSF, 20 µM, n=2): -0.43 °C; ΔTm at 20 µM (MAPK1): -0.24 °C; ΔTm at 20 µM (ABL1; DSF, 20 µM, n=2): 0.55 °C; ΔTm at 20 µM (CDK2; DSF, 20 µM, n=2): 0.11 °C; ΔTm at 20 µM (BRD4; DSF, 20 µM, n=2): -1.51 °C; ΔTm at 20 µM (TRIM24; DSF, 20 µM, n=2): -1.04 °C; ΔTm at 20 µM (BRPF1; DSF, 20 µM, n=2): -0.66 °C; IC50 (NR3C4 (AR)): 43 ± 12 nM; ΔTm at 20 µM (AURKA; DSF, 20 µM, n=2): -1.09 °C; VP16 control [fold reporter gene activity] (Gal4-VP16): 1.26 fold reporter gene activity and 1.19 fold reporter gene activity and 1.03 fold reporter gene activity; ΔTm at 20 µM (CSNK1D; DSF, 20 µM, n=2): 0.3 °C; Mean NFκB response ([6]; 1 µM, 24 h): 36873.33 GFP+-cells/confluence ∙ 1000; NF-κB activity (inflammatory response to ionomycin/PMA) [6]: tended to enhance NF-κB activity
CCCc1c(-c2ccc(O)cc2)nn(-c2ccc(O)cc2)c1-c1ccc(O)cc1 [Propylpyrazoletriol] | 96% | 0.98 (2×) and 1.03 and 0.91 and 0.97 and 0.94 and 1.18 and 1.14 | 1.04 and 1.18 and 0.79 and 1.33 and 1.63 and 1.23 | 0.81 and 2.52 and 0.99 and 1.39 and 1.25 and 1.17 and 0.88 and 3.47 and 1.21 and 7.02 | 1.15 and 0.83 and 0.85 and 0.82 | 3210.54 GFP+-cells/confluence ∙ 1000 | 4272.75 GFP+-cells/confluence ∙ 1000 | 9949.66 GFP+-cells/confluence ∙ 1000 | 19765.59 GFP+-cells/confluence ∙ 1000 | 27110.00 GFP+-cells/confluence ∙ 1000 | 32836.67 GFP+-cells/confluence ∙ 1000 | 36663.33 GFP+-cells/confluence ∙ 1000 | 39666.67 GFP+-cells/confluence ∙ 1000 | 3501.92 GFP+-cells/confluence ∙ 1000 | 6059.91 GFP+-cells/confluence ∙ 1000 | 15582.73 GFP+-cells/confluence ∙ 1000 | 23751.78 GFP+-cells/confluence ∙ 1000 | 30496.67 GFP+-cells/confluence ∙ 1000 | 34710.00 GFP+-cells/confluence ∙ 1000 | 37963.33 GFP+-cells/confluence ∙ 1000 | ΔTm at 20 µM (FGFR3): -0.78 °C; ΔTm at 20 µM (GSK3B): 0.06 °C; ΔTm at 20 µM (ABL1): -0.07 °C; rel. activity from literature, NR3A1 (ERα): % of estradiol (NR3A1 (ERα)): 120%; ATF6 activity (tunicamycin-induced endoplasmic reticulum stress) ([1]; Hela ATF6 reporter cells, tunicamycin 100 ng/mL, 18 h, compounds at recommended concentrations, n = 5): failed to reduce ATF6 activity; ΔTm at 20 µM (CDK2): -2.26 °C; ΔTm at 20 µM (BRD4): -2.55 °C; ΔTm at 20 µM (TRIM24): -3.23 °C; ΔTm at 20 µM (BRPF1): -2.86 °C; ΔTm at 20 µM (AURKA): 0.0212 °C; ΔTm at 20 µM (CSNK1D): 1.72 °C; Mean NFκB response ([6]; 1 µM, 24 h): 40840.00 GFP+-cells/confluence ∙ 1000; NF-κB activity (inflammatory response to ionomycin/PMA) [6]: no impact on NF-κB activity
